# Measurements as given in US7049336B2, “Method for diagnosing neuronal diseases and for treating primary hemostasis deficiency” (Max-Delbruck-Centrum fur Molekularc Medizin, priority 2000, dated 2006).
# System: TPH(−/−)-mice
# Test: Bleeding time (disturbed hemostasis) in TPH(−/−)-mice after intracardial injection
# Type: in vivo, mouse
# Details: for Effect on prolonged bleeding time phenotype: TPH(−/−)-mice
# Text: FIG. 3. Disturbed hemostasis in TPH(−/−)-mice. • A. Prolonged bleeding times of TPH(−/−)-animals. […] The 5-HT-amounts applied result in 1/10 and the ten-fold of the normal blood concentrations. • C. […] The effect is specific for the TPH(−/−)-mice, whereas control-animals are not affected.
Compound,Effect on prolonged bleeding time phenotype (intracardial von Willebrand-factor injection),"Effect on bleeding time in control-animals (control-animals, intracardial von Willebrand-factor injection)","Effect on prolonged bleeding time phenotype (intracardial 5-HT-injection, amounts result in 1/10 and the ten-fold of the normal blood concentrations)"
von Willebrand-factor: commercially available von Willebrand-factor (vWF),Healing of the phenotype,not affected,–
"NCCc1c[nH]c2ccc(O)cc12 [5-HT, serotonin, reference compound]",–,–,Healing of the phenotype
